# Reference: US20230158025A1 (UNIVERSITY OF UTAH RESEARCH FOUNDATION, priority 2020, published 2023)
# Like-named read-outs stand apart in the source and are kept apart here.
# Assays:
# [1] = aqueous kinetic solubility; conditions: aqueous kinetic solubility
# recombinant mouse GALK1 = recombinant mouse GALK1 (Mus musculus, UniProt Q9R0N0); assay: mGALK1 biochemical activity assay (Kinase-Glo Plus, ATP depletion)
# How it was run: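 Recombinant GALK1 (5 nM) with 100 μM galactose; GALK1 turnover read as ATP depletion by Kinase-Glo Plus luminescence. Reaction ran 1 h at room temperature before detection reagent was added.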
# recombinant human GALK1 = recombinant human GALK1 (Homo sapiens, UniProt P51570); assay: hGALK1 biochemical activity assay (Kinase-Glo Plus, ATP depletion)
# How it was run: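 Recombinant human or mouse GALK1 (5 nM, with 100 μM galactose, in the added enzyme solution) was run with ATP (35 μM in the substrate solution) in HEPES pH 8.0 buffer. Compounds were tested at 11 1/3-step concentrations from 57.4 μM to 0.97 nM. After 1 h at room temperature, remaining ATP was read by Kinase-Glo Plus luminescence.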
# [2] = rat microsomal stability (RLM); conditions: microsomal stability half-life
# PAMPA permeability = conditions: PAMPA
# [3] = Tables 2-15, 35 μM ATP, 100 μM galactose, 1 h, bracketed figure after some values is undefined and not reported, read-out: mGALK IC50
# [4] = recombinant mouse GALK1, Kinase-Glo Plus ATP depletion, read-out: mGALK
# [5] = Tables 2-15, 35 μM ATP, 100 μM galactose, 1 h, bracketed figure after some values (e.g. −1.2) is undefined and not reported, read-out: hGALK IC50
# [6] = recombinant human GALK1, Kinase-Glo Plus ATP depletion, read-out: hGALK
# [7] = recombinant mouse GALK1, Kinase-Glo Plus ATP depletion, bracketed figure in the cell, e.g. (−1.2), is not defined in the text shown, read-out: mGALK
# [8] = recombinant human GALK1, Kinase-Glo Plus ATP depletion, bracketed figure in the cell, e.g. (−1.2), is not defined in the text shown, read-out: hGALK
# Chain of recombinant human GALK1 (P51570 whole entry): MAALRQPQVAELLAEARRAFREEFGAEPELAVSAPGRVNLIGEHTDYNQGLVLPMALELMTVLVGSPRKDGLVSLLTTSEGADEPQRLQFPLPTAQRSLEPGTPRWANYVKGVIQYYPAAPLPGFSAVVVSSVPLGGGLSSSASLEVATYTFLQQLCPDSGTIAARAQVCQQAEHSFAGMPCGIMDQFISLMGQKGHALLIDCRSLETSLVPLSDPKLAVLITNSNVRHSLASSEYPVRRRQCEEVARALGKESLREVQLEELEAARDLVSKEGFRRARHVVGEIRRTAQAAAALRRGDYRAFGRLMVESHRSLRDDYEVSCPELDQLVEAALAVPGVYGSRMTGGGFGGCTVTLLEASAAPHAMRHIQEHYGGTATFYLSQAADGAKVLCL
# Chain of recombinant mouse GALK1 (Q9R0N0 whole entry): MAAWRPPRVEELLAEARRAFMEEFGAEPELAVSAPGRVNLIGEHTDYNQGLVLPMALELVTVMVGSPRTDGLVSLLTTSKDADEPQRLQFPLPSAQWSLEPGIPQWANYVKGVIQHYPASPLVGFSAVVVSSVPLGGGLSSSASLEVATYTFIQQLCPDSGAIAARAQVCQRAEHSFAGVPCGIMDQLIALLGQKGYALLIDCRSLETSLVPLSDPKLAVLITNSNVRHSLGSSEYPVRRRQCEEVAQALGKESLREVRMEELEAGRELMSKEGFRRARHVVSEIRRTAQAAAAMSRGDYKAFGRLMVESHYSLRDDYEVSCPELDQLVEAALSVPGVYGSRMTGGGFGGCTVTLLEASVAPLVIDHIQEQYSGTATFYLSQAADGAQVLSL
Structure (SMILES),Sol. [1] [µg/mL],IC50 (recombinant mouse GALK1; [3]) [µM],IC50 (recombinant mouse GALK1; [4]) [µM],IC50 (recombinant human GALK1; [5]) [µM],IC50 (recombinant human GALK1; [6]) [µM],Metab. Stabil. (m) [2] [m],Perm. (1 × 10^−6 cm/sec) (PAMPA permeability),"mGALK IC50 (recombinant mouse GALK1; Tables 2-15, 35 μM ATP, 100 μM galactose, 1 h, bracketed figure after some values is undefined and not reported)","mGALK (μM) (recombinant mouse GALK1; recombinant mouse GALK1, Kinase-Glo Plus ATP depletion)","hGALK IC50 (recombinant human GALK1; Tables 2-15, 35 μM ATP, 100 μM galactose, 1 h, bracketed figure after some values (e.g. −1.2) is undefined and not reported)","hGALK (μM) (recombinant human GALK1; recombinant human GALK1, Kinase-Glo Plus ATP depletion)",IC50 (recombinant mouse GALK1; [7]) [µM],IC50 (recombinant human GALK1; [8]) [µM],Metab. Stabil. (m) ([2]; minutes)
"CC1=C(C(=O)NCc2ccc(Cl)cc2)C(c2ccccc2Cl)N=C(Nc2nc3ccccc3o2)N1 (stereo not drawn) [Compound 218, 2-(benzo[d]oxazol-2-ylamino)-4-(2-chlorophenyl)-N-(4-chlorobenzyl)-6-methyl-1,4-dihydropyrimidine-5-carboxamide]",<1,,,,,11.91,25.8 1 × 10^−6 cm/sec,inactive,in- active,inactive,in- active,,,
"CC1=C(C(=O)NCc2ccccn2)C(c2ccccc2Cl)N=C(Nc2nc3ccccc3o2)N1 (stereo not drawn) [Compound 220, 2-(benzo[d]oxazol-2-ylamino)-4-(2-chlorophenyl)-6-methyl-N-(pyridin-2-ylmethyl)-1,4-dihydropyrimidine-5-carboxamide]",1.8,,19.3,8.63,8.63,6.557,1424.0 1 × 10^−6 cm/sec,,,,,,,
"CC1=C(C(=O)NCc2cccnc2)C(c2ccccc2Cl)N=C(Nc2nc3ccccc3o2)N1 (stereo not drawn) [Compound 221, 2-(benzo[d]oxazol-2-ylamino)-4-(2-chlorophenyl)-6-methyl-N-(pyridin-3-ylmethyl)-1,4-dihydropyrimidine-5-carboxamide]",<1,,19.3,6.85,6.85,1.582,1248.8 1 × 10^−6 cm/sec,,,,,,,
"CC1=C(C(=O)NCc2ccc(C(=O)O)cc2)C(c2ccccc2Cl)N=C(Nc2nc3ccccc3o2)N1 (stereo not drawn) [Compound 225, 4-((2-(benzo[d]oxazol-2-ylamino)-4-(2-chlorophenyl)-6-methyl-1,4-dihydropyrimidine-5-carboxamido)methyl)benzoic acid]",47.0,10.9,10.9,3.43,,>30,<1 1 × 10^−6 cm/sec,,,,,,,
"CC1=C(C(=O)NCc2cccc(CO)c2)C(c2ccccc2Cl)N=C(Nc2nc3ccccc3o2)N1 (stereo not drawn) [Compound 227, 2-(benzo[d]oxazol-2-ylamino)-4-(2-chlorophenyl)-N-(3-(hydroxymethyl)benzyl)-6-methyl-1,4-dihydropyrimidine-5-carboxamide]",<1,12.2,12.2,,4.85,6.574,868.8 1 × 10^−6 cm/sec,,,,,,,
"CC1=C(C(=O)NCc2ccc(CO)cc2)C(c2ccccc2Cl)N=C(Nc2nc3ccccc3o2)N1 (stereo not drawn) [Compound 228, 2-(benzo[d]oxazol-2-ylamino)-4-(2-chlorophenyl)-N-(4-(hydroxymethyl)benzyl)-6-methyl-1,4-dihydropyrimidine-5-carboxamide]",<1,15.3,15.3,6.85,,13.8241,867.3 1 × 10^−6 cm/sec,,,,,,,
"CC1=C(C(=O)NCc2cn(C)cn2)[C@H](c2ccccc2Cl)N=C(Nc2nc3ccccc3o2)N1 [Compound 235, (R)-2-(benzo[d]oxazol-2-ylamino)-4-(2-chlorophenyl)-6-methyl-N-((1-methyl-1H-imidazol-4-yl)methyl)-1,4-dihydropyrimidine-5-carboxamide]",46.1,4.32,4.32,3.06,3.06,5.621,866.5 1 × 10^−6 cm/sec,,,,,,,
CC1=C(C(=O)NCCN(C)C)C(c2ccccc2Cl)N=C(Nc2nc3ccccc3o2)N1 (stereo not drawn) [Compound 237],>67,15.3,15.3,19.3,19.3,>30,>1227 1 × 10^−6 cm/sec,,,,,,,
"CC1=C(C(=O)NCc2cnn(C)c2)C(c2ccccc2Cl)N=C(Nc2nc3ccccc3o2)N1 (stereo not drawn) [Compound 238, 2-(benzo[d]oxazol-2-ylamino)-4-(2-chlorophenyl)-6-methyl-N-((1-methyl-1H-pyrazol-4-yl)methyl)-1,4-dihydropyrimidine-5-carboxamide]",24.2,12.2,12.2,1.37,,15.67,807.7 1 × 10^−6 cm/sec,,,,,,,
"CC1=C(S(C)(=O)=O)C(c2ccccc2Cl)N=C(Nc2nc3ccccc3o2)N1 (stereo not drawn) [Compound 243, N-(4-(2-chlorophenyl)-6-methyl-5-(methylsulfonyl)-1,4-dihydropyrimidin-2-yl)benzo[d]oxazol-2-amine]",<1,,19.3,,13.7,9.37,42.78 1 × 10^−6 cm/sec,,,,,,,
"O/N=C1\CCCC2=C1C(c1ccccc1Cl)N=C(Nc1nc3ccccc3o1)N2 (stereo not drawn) [Compound 244, (E)-2-(benzo[d]oxazol-2-ylamino)-4-(2-chlorophenyl)-4,6,7,8-tetrahydroquinazolin-5(1H)-one oxime]",<1,,,,,,244.29 1 × 10^−6 cm/sec,,,,,10.9,17.2,5.48
"O=C(Nc1nncs1)C1=C(C(F)(F)F)NC(Nc2nc3ccccc3o2)=NC1c1ccccc1Cl (stereo not drawn) [Compound 246, 2-(benzo[d]oxazol-2-ylamino)-4-(2-chlorophenyl)-N-(1,3,4-thiadiazol-2-yl)-6-(trifluoromethyl)-1,4-dihydropyrimidine-5-carboxamide]",21.9,,,,,,715.1 1 × 10^−6 cm/sec,,,,,17.2,13.7,>30

# More lines, main results first:
Sol. [1] [µg/mL],IC50 (recombinant mouse GALK1; [3]) [µM],IC50 (recombinant mouse GALK1; [4]) [µM],IC50 (recombinant human GALK1; [5]) [µM],IC50 (recombinant human GALK1; [6]) [µM],Metab. Stabil. (m) [2] [m],Perm. (1 × 10^−6 cm/sec) (PAMPA permeability),"mGALK IC50 (recombinant mouse GALK1; Tables 2-15, 35 μM ATP, 100 μM galactose, 1 h, bracketed figure after some values is undefined and not reported)","mGALK (μM) (recombinant mouse GALK1; recombinant mouse GALK1, Kinase-Glo Plus ATP depletion)","hGALK IC50 (recombinant human GALK1; Tables 2-15, 35 μM ATP, 100 μM galactose, 1 h, bracketed figure after some values (e.g. −1.2) is undefined and not reported)","hGALK (μM) (recombinant human GALK1; recombinant human GALK1, Kinase-Glo Plus ATP depletion)",Structure (SMILES),IC50 (recombinant mouse GALK1; [7]) [µM],IC50 (recombinant human GALK1; [8]) [µM],Metab. Stabil. (m) ([2]; minutes)
<1,12.2,12.2,7.69,7.69,1.4,99.3 1 × 10^−6 cm/sec,,,,,"COc1ccccc1CNC(=O)C1=C(C)NC(Nc2nc3ccccc3o2)=NC1c1ccccc1Cl (stereo not drawn) [Compound 215, 2-(benzo[d]oxazol-2-ylamino)-4-(2-chlorophenyl)-N-(2-methoxybenzyl)-6-methyl-1,4-dihydropyrimidine-5-carboxamide]",,,
<1,4.32,4.32,6.85,6.85,1.742,462.5 1 × 10^−6 cm/sec,,,,,"COC(=O)c1ccccc1CNC(=O)C1=C(C)NC(Nc2nc3ccccc3o2)=NC1c1ccccc1Cl (stereo not drawn) [Compound 222, methyl 2-((2-(benzo[d]oxazol-2-ylamino)-4-(2-chlorophenyl)-6-methyl-1,4-dihydropyrimidine-5-carboxamido)methyl)benzoate]",,,
<1,8.63,8.63,4.32,4.32,8.495,543.4 1 × 10^−6 cm/sec,,,,,"COC(=O)c1ccc(CNC(=O)C2=C(C)NC(Nc3nc4ccccc4o3)=NC2c2ccccc2Cl)cc1 (stereo not drawn) [Compound 223, methyl 4-((2-(benzo[d]oxazol-2-ylamino)-4-(2-chlorophenyl)-6-methyl-1,4-dihydropyrimidine-5-carboxamido)methyl)benzoate]",,,
<1,7.69,7.69,4.85,4.85,3.416,615.7 1 × 10^−6 cm/sec,,,,,"COC(=O)c1cccc(CNC(=O)C2=C(C)NC(Nc3nc4ccccc4o3)=NC2c2ccccc2Cl)c1 (stereo not drawn) [Compound 224, methyl 3-((2-(benzo[d]oxazol-2-ylamino)-4-(2-chlorophenyl)-6-methyl-1,4-dihydropyrimidine-5-carboxamido)methyl)benzoate]",,,
60.6,,19.3,,7.69,>30,<1.3 1 × 10^−6 cm/sec,,,,,"CC1=C(C(=O)NCc2cccc(C(=O)O)c2)C(c2ccccc2Cl)N=C(Nc2nc3ccccc3o2)N1 (stereo not drawn) [Compound 226, 3-((2-(benzo[d]oxazol-2-ylamino)-4-(2-chlorophenyl)-6-methyl-1,4-dihydropyrimidine-5-carboxamido)methyl)benzoic acid]",,,
<1,15.3,15.3,6.11,,5.0859,1362.3 1 × 10^−6 cm/sec,,,,,"CC1=C(C(=O)NCc2ccccc2CO)C(c2ccccc2Cl)N=C(Nc2nc3ccccc3o2)N1 (stereo not drawn) [Compound 229, 2-(benzo[d]oxazol-2-ylamino)-4-(2-chlorophenyl)-N-(2-(hydroxymethyl)benzyl)-6-methyl-1,4-dihydropyrimidine-5-carboxamide]",,,
